Structures can show the parent of a compound that is named as a salt.
Each compound was assayed against T1, human IKK-β (Homo sapiens, UniProt O14920) (assay: IKK-β kinase inhibitory assay). Details: compounds as yielded by solid phase synthesis, purity about 40 to 90%, read-out: In vitro activity grade (In vitro IC50).
T1 construct: A cDNA fragment encoding human IKK-β open reading frame was generated by PCR; His tag (from pcDNA3.1/His C); made in house; host or cells: Sf21 insect cells (baculovirus); substrate made in E. coli
T1 sequence (O14920 1-756): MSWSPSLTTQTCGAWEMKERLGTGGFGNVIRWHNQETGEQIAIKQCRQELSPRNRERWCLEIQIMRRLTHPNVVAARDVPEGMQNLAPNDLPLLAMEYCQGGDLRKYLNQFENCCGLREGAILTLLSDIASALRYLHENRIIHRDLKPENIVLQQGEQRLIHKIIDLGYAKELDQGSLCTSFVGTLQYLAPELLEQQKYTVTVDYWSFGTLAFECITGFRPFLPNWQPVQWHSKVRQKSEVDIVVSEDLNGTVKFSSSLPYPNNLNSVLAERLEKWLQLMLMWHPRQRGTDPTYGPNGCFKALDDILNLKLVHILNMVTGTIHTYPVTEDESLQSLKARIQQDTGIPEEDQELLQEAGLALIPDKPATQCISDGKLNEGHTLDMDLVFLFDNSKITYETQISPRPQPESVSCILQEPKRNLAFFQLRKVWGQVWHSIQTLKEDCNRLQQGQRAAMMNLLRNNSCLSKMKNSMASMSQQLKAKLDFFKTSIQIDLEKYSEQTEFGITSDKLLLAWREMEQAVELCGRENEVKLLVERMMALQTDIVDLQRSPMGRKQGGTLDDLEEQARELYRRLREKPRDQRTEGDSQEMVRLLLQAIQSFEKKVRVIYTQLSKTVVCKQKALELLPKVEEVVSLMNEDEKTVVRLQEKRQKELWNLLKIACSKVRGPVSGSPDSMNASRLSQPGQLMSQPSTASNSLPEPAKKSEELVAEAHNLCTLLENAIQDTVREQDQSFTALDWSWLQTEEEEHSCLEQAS
Type: biochemical
Outline: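 Radiometric read-out: streptavidin capture of 33P-labelled bio-GST-IκBα(1-54), 0.2 μM, after a 2 h room-temperature reaction started with ATP/[γ-33P]ATP. Enzyme was recombinant His-tagged human IKK-β expressed in Sf21 insect cells, used at 0.6 μg/ml in Tris-HCl pH 7.6/MgCl2 kinase buffer. Compounds added in 2.5% DMSO.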

SMILES | IC50 [nM]
N#Cc1c(C2CCCNC2)cc(-c2c(O)cccc2OCc2cccc(Br)c2)nc1N (stereo not shown) [Example 2-11] | < 500
N#Cc1c(C2CCCNC2)cc(-c2c(O)cccc2OCc2ccccc2Cl)nc1N (stereo not shown) [Example 2-17] | < 500
N#Cc1c([C@@H]2CCCN2)cc(-c2ccccc2O)nc1N [Example 1-31] | 500 to 2000
N#Cc1c(C2CCCNC2)cc(-c2c(O)cccc2OCC2CCC2)nc1N (stereo not shown) [Example 2-62] | < 500
O=c1[nH]c2nc(-c3c(O)cccc3OCC3CC3)cc(C3CCCNC3)c2cc1F (stereo not shown) [Example 25-2, 7-[2-(cyclopropylmethoxy)-6-hydroxyphenyl]-3-fluoro-5-(3-piperidinyl)-1,8-naphthyridin-2(1H)-one hydrochloride] | < 500
N#Cc1c(C2CCCNC2)cc(-c2c(O)cccc2OCCN2CCCC2)nc1N (stereo not shown) [Example 2-87] | 2000 to 10000
N#Cc1c([C@@H](N)Cc2ccc(F)cc2)cc(-c2ccccc2O)nc1N [Example 1-30] | < 500
N#Cc1c(C2CCCN(C(=O)CCN3CCCCC3)C2)cc(-c2ccccc2O)nc1N (stereo not shown) [Example 1-41] | 500 to 2000
N#Cc1c(C2CCCNC2)cc(-c2ccc(O)cc2O)nc1N (stereo not shown) [Example 1-18] | 500 to 2000
Cc1cccc(O)c1-c1cc(C2CCCNC2)c(C#N)c(N)n1 (stereo not shown) [Example 1-21] | 2000 to 10000
CCCCCCOc1cccc(O)c1-c1cc(C2CCNCC2)c(C#N)c(N)n1 [Example 2-76] | < 500
CCCC[C@H](N)c1cc(-c2ccccc2O)nc(N)c1C#N [Example 1-28] | < 500
N#Cc1c(C2CCCNC2)cc(-c2c(O)cccc2OCc2ccc(C(F)(F)F)cc2)nc1N (stereo not shown) [Example 2-10] | < 500
N#Cc1c(C2CCCNC2)cc(-c2c(O)cccc2OCC2CCCO2)nc1N (stereo not shown) [Example 2-81] | < 500
N#Cc1c(C2CCCNC2)cc(-c2c(O)cccc2OCC2CCCCO2)nc1N (stereo not shown) [Example 2-79] | < 500
CS(=O)(=O)N1CCCC(c2cc(-c3ccccc3O)nc(N)c2C#N)C1 (stereo not shown) [Example 1-42] | 2000 to 10000
N#Cc1c(C2CCCNC2)cc(-c2cccc(Cl)c2O)nc1N (stereo not shown) [Example 1-20] | < 500
N#Cc1ccc(COc2cccc(O)c2-c2cc(C3CCCNC3)c(C#N)c(N)n2)cc1 (stereo not shown) [Example 2-16] | < 500
CCOC(=O)c1cc2c(C3CCCNC3)cc(-c3ccccc3O)nc2[nH]c1=O (stereo not shown) [Example 25-1, ethyl 7-(2-hydroxyphenyl)-2-oxo-5-(3-piperidinyl)-1,2-dihydro-1,8-naphthyridine-3-carboxylate hydrochloride] | < 500
NC(=O)C1Cc2c(C3CCNCC3)cc(-c3c(O)cccc3OCC3CC3)nc2NC1=O (stereo not shown) [Example 26-2, 7-[2-(cyclopropylmethoxy)-6-hydroxyphenyl]-2-oxo-5-(4-piperidinyl)-1,2,3,4-tetrahydro-1,8-naphthyridine-3-carboxamide hydrochloride] | < 500
N#Cc1c(C2CCCNC2)cc(-c2c(O)cccc2OCCN2CCCCC2)nc1N (stereo not shown) [Example 2-83] | 500 to 2000
CCCCCCCOc1cccc(O)c1-c1cc(C2CCNCC2)c(C#N)c(N)n1 [Example 2-73] | < 500
CCCCCCCOc1cccc(O)c1-c1cc(C2CCCNC2)c(C#N)c(N)n1 (stereo not shown) [Example 2-64] | < 500
N#Cc1c(C2CCCNC2)cc(-c2c(O)cccc2OCC2CCCO2)nc1N (stereo not shown) [Example 2-80] | < 500
N#Cc1c([C@@H](N)Cc2ccccc2)cc(-c2ccccc2O)nc1N [Example 1-25] | < 500
N#Cc1c([C@H](N)Cc2ccccc2)cc(-c2ccccc2O)nc1N [Example 1-34] | < 500

SMILES | IC50 [nM]
N#Cc1c(C2CCCNC2)cc(-c2c(O)cccc2OCCC2CCCCC2)nc1N (stereo not shown) [Example 2-61] | < 500
N#Cc1c(C2CCCNC2)cc(-c2cccc(F)c2O)nc1N (stereo not shown) [Example 1-19] | < 500
N#Cc1c(C2CCNCC2)cc(-c2c(O)cccc2OCC2CCCO2)nc1N (stereo not shown) [Example 2-82] | < 500
CCc1cc(-c2ccccc2O)nc(N)c1C#N [Example 1-39] | 2000 to 10000
N#Cc1cccc(COc2cccc(O)c2-c2cc(C3CCCNC3)c(C#N)c(N)n2)c1 (stereo not shown) [Example 2-15] | < 500
N#Cc1c(C2CCCNC2)cc(-c2c(O)cccc2OCc2c(Cl)cccc2Cl)nc1N (stereo not shown) [Example 2-20] | < 500
N#Cc1c([C@@H](N)CCc2ccccc2)cc(-c2ccccc2O)nc1N [Example 1-29] | 500 to 2000
N#Cc1c(C2CNCCN2)cc(-c2ccccc2O)nc1N (stereo not shown) [Example 1-15] | 500 to 2000
N#Cc1c(C2CCCC(N)C2)cc(-c2ccccc2O)nc1N (stereo not shown) [Example 1-23] | < 500
CC(C)CCCOc1cccc(O)c1-c1cc(C2CCCNC2)c(C#N)c(N)n1 (stereo not shown) [Example 2-63] | < 500
CC(C)CCCOc1cccc(O)c1-c1cc(C2CCNCC2)c(C#N)c(N)n1 [Example 2-66] | < 500
NC(=O)c1cc2c(C3CCNCC3)cc(-c3c(O)cccc3OCC3CC3)nc2[nH]c1=O [Example 25-3, 7-[2-(cyclopropylmethoxy)-6-hydroxyphenyl]-2-oxo-5-(4-piperidinyl)-1,2-dihydro-1,8-naphthyridine-3-carboxamide hydrochloride] | < 500
N#Cc1c(C2CCCNC2)cc(-c2c(O)cccc2OCc2ccccc2[N+](=O)[O-])nc1N (stereo not shown) [Example 2-12] | < 500
C=CCOc1cccc(O)c1-c1cc(C2CCNCC2)c(C#N)c(N)n1 [Example 2-74] | < 500
N#Cc1c(C2CCCNC2)cc(-c2c(O)cccc2OCCN2CCCCCC2)nc1N (stereo not shown) [Example 2-86] | 2000 to 10000
CCOc1cccc(O)c1-c1cc(C2CCNCC2)c(C#N)c(N)n1 [Example 2-75] | < 500
C[C@H](N)c1cc(-c2ccccc2O)nc(N)c1C#N [Example 1-32] | < 500
N#Cc1c(CCN)cc(-c2ccccc2O)nc1N [Example 1-37] | < 500
CC(C)(C)C(=O)COc1cccc(O)c1-c1cc(C2CCNCC2)c(C#N)c(N)n1 [Example 2-78] | < 500
N#Cc1c(C2CCNCC2)cc(-c2ccccc2O)nc1N [Example 1-13] | < 500
CS(=O)(=O)N1Cc2c(C3CCCNC3)cc(-c3c(O)cccc3OCC3CC3)nc2NC1=O (stereo not shown) [Example 24-4, 7-[2-(cyclopropylmethoxy)-6-hydroxyphenyl]-3-(methylsulfonyl)-5-(3-piperidinyl)-3,4-dihydropyrido[2,3-d]pyrimidin-2(1H)-one hydrochloride] | < 500
O=C1CCc2c(C3CCCNC3)cc(-c3ccccc3O)nc2N1 (stereo not shown) [Example 27-1, 7-(2-hydroxyphenyl)-5-(3-piperidinyl)-3,4-dihydro-1,8-naphthyridin-2(1H)-one hydrochloride] | < 500
N#Cc1c(C2CCCNC2)cc(-c2c(O)cccc2OCc2ccc3ccccc3c2)nc1N (stereo not shown) [Example 2-21] | < 500
CC(C)COc1cccc(O)c1-c1cc(C2CCNCC2)c(C#N)c(N)n1 [Example 2-71] | < 500
CCCN(CCC)C1CCCC(c2cc(-c3ccccc3O)nc(N)c2C#N)C1 (stereo not shown) [Example 1-43] | < 500
N#Cc1c(C2CCCNC2)cc(-c2c(O)cccc2OCc2cccc(Cl)c2)nc1N (stereo not shown) [Example 2-18] | < 500
